Among the test systems are HL-60(TB) leukemia; K-562 leukemia; LOX IMVI melanoma; MOLT-4 leukemia; NCI-H522 lung; OVCAR-5 ovarian; U251 CNS; UACC-62 melanoma; MALME-3M melanoma.
Common to all, as to assay: NCI anticancer screen, dose series, 48 h

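Cells were grown in 96-well plates and exposed to each compound for 48 hours at five concentrations; endpoints were interpolated linearly between bracketing concentrations, or set to the highest concentration if not reached. GI50 is the concentration that inhibits growth by half. TGI is the concentration that stops growth completely.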 A value given as a limit tells only on which side of the number the result lay.

`C=C(CO)CC(/C=C(\C)CC/C=C(\C)CCl)OC(C)=O` (stereo not given): the TGI in the assay with HL-60(TB) leukemia, in the assay with K-562 leukemia, with LOX IMVI melanoma, in the assay on MOLT-4 leukemia, in the assay on NCI-H522 lung and with OVCAR-5 ovarian was above 100 µM in each case. The TGI in the assay with U251 CNS and in the assay with UACC-62 melanoma was above 100 µM in each case.

As for `COc1ccc2c(c1)[n+](=O)c(C(=O)CC(=O)C(=O)Nc1cccc(C)c1C)c(C)n2[O-]`, the TGI in the assay on HL-60(TB) leukemia, in the assay with K-562 leukemia, in the assay on LOX IMVI melanoma, in the assay with MALME-3M melanoma, in the assay on MOLT-4 leukemia and in the assay on NCI-H522 lung was above 100 µM throughout. In addition, the TGI in the assay on OVCAR-5 ovarian, in the assay with U251 CNS and with UACC-62 melanoma was above 100 µM in each case.

Take `c1cc[c]([Sn]([O]c2cccc3cccnc23)([O]c2cccc3cccnc23)[c]2ccccc2)cc1`: the GI50 in the assay with HL-60(TB) leukemia is 0.144 µM; in the assay on K-562 leukemia, 0.221 µM; in the assay on LOX IMVI melanoma, 0.198 µM; in the assay on MOLT-4 leukemia it was 0.203 µM; in the assay with U251 CNS, 0.938 µM; with UACC-62 melanoma it was 0.223 µM. For the same compound, the TGI in the assay on HL-60(TB) leukemia was found to be 0.351 µM; in the assay with K-562 leukemia it was 0.631 µM; in the assay with LOX IMVI melanoma it was 0.424 µM; in the assay with MOLT-4 leukemia, 0.429 µM; with U251 CNS it was 2.6 µM; in the assay on UACC-62 melanoma, 0.502 µM.

On to `CCOC(=O)C1=C(C(=O)OCC)C2(c3ccccc3)N(O1)c1ccccc1C2(C)C` (stereo not given), for which the TGI with HL-60(TB) leukemia was 53 µM; in the assay on K-562 leukemia, above 100 µM; with MALME-3M melanoma, above 100 µM; in the assay with MOLT-4 leukemia it was above 100 µM; in the assay on NCI-H522 lung, 63.8 µM; with OVCAR-5 ovarian, above 100 µM. In addition, the TGI in the assay with U251 CNS and with UACC-62 melanoma was above 100 µM each time.

As to `Cc1ccccc1N=Nc1c(-c2ccccc2)nn(C(=O)CC(=O)Nc2cccc(Cl)c2)c1-c1ccccc1`, the TGI in the assay with HL-60(TB) leukemia is 24.5 µM; in the assay on K-562 leukemia it was above 31.6 µM; in the assay with LOX IMVI melanoma, 25.3 µM; in the assay with MALME-3M melanoma, above 100 µM; with MOLT-4 leukemia, 22.7 µM; in the assay on OVCAR-5 ovarian it was above 31.6 µM. Besides, the TGI in the assay on U251 CNS was 19.6 µM; with UACC-62 melanoma it was above 31.6 µM.

Take `O=C(N/C(=C/c1cccc([N+](=O)[O-])c1)c1nc2ccc(Cl)cc2[nH]1)c1ccccc1`: the TGI with HL-60(TB) leukemia was 20.2 µM; with K-562 leukemia, 46.9 µM; in the assay with LOX IMVI melanoma, 58.3 µM; in the assay on MALME-3M melanoma, 36.4 µM; in the assay with MOLT-4 leukemia, 49 µM; in the assay with NCI-H522 lung it was 39.1 µM. Besides, the TGI worked out at 78.6 µM in the assay with OVCAR-5 ovarian, 25.4 µM in the assay on U251 CNS and 33.5 µM in the assay with UACC-62 melanoma.

For the compound `COC(=O)CC(=O)NCC1=CCC(=O)CC1`, the TGI in the assay with HL-60(TB) leukemia, with K-562 leukemia, in the assay on LOX IMVI melanoma, with MALME-3M melanoma, in the assay on MOLT-4 leukemia and in the assay on NCI-H522 lung was above 100 µM in each case. The TGI in the assay with U251 CNS and with UACC-62 melanoma was above 100 µM throughout.

On to `NC(=S)N/N=C1/CN(c2ccc(Cl)c(Cl)c2)CC(=O)C1c1nc2ccccc2s1` (stereo not given), for which the TGI in the assay on HL-60(TB) leukemia, in the assay on K-562 leukemia, in the assay on LOX IMVI melanoma, in the assay with MALME-3M melanoma, in the assay on NCI-H522 lung and in the assay on OVCAR-5 ovarian was above 100 µM each time. For the same compound, the TGI with U251 CNS and in the assay on UACC-62 melanoma was above 100 µM throughout.

As for `O=c1[nH]c(=O)n(C2CC(O)C(CO)O2)cc1COCC(F)(F)F` (stereo not given), the TGI in the assay with HL-60(TB) leukemia, in the assay with K-562 leukemia, in the assay on LOX IMVI melanoma, with MALME-3M melanoma, in the assay with MOLT-4 leukemia and in the assay with NCI-H522 lung was above 100 µM each time. Besides, the TGI in the assay on OVCAR-5 ovarian, in the assay with U251 CNS and in the assay with UACC-62 melanoma was above 100 µM throughout.

Regarding `COc1cccc2nc3c(C(=O)NCCN(C)C)cccc3nc12`, the TGI in the assay on HL-60(TB) leukemia was 17.5 µM; in the assay on K-562 leukemia, 25.2 µM; in the assay with LOX IMVI melanoma it was 14.1 µM; in the assay on MALME-3M melanoma, 21.9 µM; in the assay on MOLT-4 leukemia it was 15.1 µM; with NCI-H522 lung, above 44.1 µM. The TGI in the assay with OVCAR-5 ovarian stood at 42.4 µM; in the assay with U251 CNS, 59.1 µM; in the assay with UACC-62 melanoma, 27 µM.

With `COc1cc2c(c(OC)c1OC)-c1ccc(SC)c(=O)cc1C(CC(=O)Oc1cccc(F)c1)C2` (stereo not given), the TGI is 0.6 µM in the assay on HL-60(TB) leukemia; above 52.4 µM with K-562 leukemia; 10.8 µM in the assay on LOX IMVI melanoma; above 100 µM with MALME-3M melanoma; above 55.2 µM in the assay with MOLT-4 leukemia; 0.241 µM with NCI-H522 lung. The TGI in the assay with OVCAR-5 ovarian is above 100 µM; in the assay with U251 CNS, 0.85 µM; in the assay on UACC-62 melanoma it was 1.07 µM.

Consider `COC(=O)N/N=C(\C)C(CN(C)C)C(c1ccccc1)c1c(O)c2ccccc2oc1=O` (stereo not given), for which the TGI in the assay on HL-60(TB) leukemia, in the assay on K-562 leukemia, in the assay with LOX IMVI melanoma, in the assay on MALME-3M melanoma, with MOLT-4 leukemia and with NCI-H522 lung was above 100 µM throughout. Also, the TGI with OVCAR-5 ovarian, with U251 CNS and in the assay on UACC-62 melanoma was above 100 µM throughout.

Take `Cc1cc2c(cc1CO)N1Cc3cc(C)c(CO)cc3N(C2)C1`: the TGI with HL-60(TB) leukemia, in the assay with K-562 leukemia, in the assay on LOX IMVI melanoma, in the assay on MOLT-4 leukemia, in the assay on NCI-H522 lung and in the assay on U251 CNS was above 100 µM in each case. The TGI with UACC-62 melanoma is above 100 µM.

As to `O=c1c2cccnc2ncn1CCCN1CCCC1`, the TGI with K-562 leukemia, in the assay on LOX IMVI melanoma, with MOLT-4 leukemia, in the assay on NCI-H522 lung, with OVCAR-5 ovarian and in the assay with U251 CNS was above 100 µM each time. In addition, the TGI with UACC-62 melanoma was above 100 µM.

`N#C/C(=C\c1ccccc1)C(NO)Nc1ccccc1` (stereo not given): the TGI with HL-60(TB) leukemia, in the assay with K-562 leukemia, in the assay with MALME-3M melanoma, in the assay on MOLT-4 leukemia, in the assay on NCI-H522 lung and in the assay with OVCAR-5 ovarian was above 100 µM each time. The TGI with U251 CNS and in the assay on UACC-62 melanoma was above 100 µM each time.

In the case of `CCn1c(CSc2nc(-c3ccccc3)c(-c3ccccc3)[nH]2)n[nH]c1=S`, the TGI in the assay with HL-60(TB) leukemia, with LOX IMVI melanoma, in the assay on MALME-3M melanoma, in the assay on MOLT-4 leukemia, in the assay on NCI-H522 lung and with OVCAR-5 ovarian was above 100 µM in each case. In the assay on U251 CNS, this compound yielded a TGI above 100 µM.

The values are drawn from PubChem BioAssay (NCI).
